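A five-concentration, 48-hour dose response in 96-well plates underlies each endpoint, interpolated linearly between surrounding concentrations. GI50 marks 50% less growth.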 Calls of active or inactive are those of the source. Rule as the data show it: active = GI50 up to about 1.1 µM and inactive = higher.
Key:
Experiment in all cases: inhibition of tumour cell growth, NCI panel, 48 h
786-0 = tested on: 786-0
A498 = tested on: A498
A549 = tested on: A549
BT-549 = tested on: BT-549
DU-145 = tested on: DU-145
HCT-15 = tested on: HCT-15
HOP-62 = tested on: HOP-62
HOP-92 = tested on: HOP-92
M14 = tested on: M14
MDA-MB-231 = tested on: MDA-MB-231
MDA-MB-435 = tested on: MDA-MB-435
MDA-N = tested on: MDA-N
Malme-3M = tested on: Malme-3M
NCI-H522 = tested on: NCI-H522
OVCAR-8 = tested on: OVCAR-8
SF-539 = tested on: SF-539
SK-MEL-2 = tested on: SK-MEL-2
SNB-75 = tested on: SNB-75
UACC-257 = tested on: UACC-257
DLD-1 = tested on: DLD-1

Structure (SMILES)	GI50 (786-0)	GI50 (A498)	GI50 (A549)	GI50 (BT-549)	GI50 (DU-145)	GI50 (HCT-15) [µM]	GI50 (HOP-62)	GI50 (HOP-92)	GI50 (M14)	GI50 (MDA-MB-231)	GI50 (MDA-MB-435)	GI50 (MDA-N)	GI50 (Malme-3M)	GI50 (NCI-H522)	GI50 (OVCAR-8)	GI50 (SF-539)	GI50 (SK-MEL-2)	GI50 (SNB-75)	GI50 (UACC-257)	GI50 (DLD-1)
CN(CC(=O)O)Cc1c[nH]c2ccccc12	> 100 µM (inactive)	> 100 µM (inactive)	> 100 µM (inactive)	> 100 µM (inactive)	> 100 µM (inactive)	> 100	> 100 µM (inactive)	> 100 µM (inactive)	> 100 µM (inactive)	> 100 µM (inactive)	> 100 µM (inactive)	> 100 µM (inactive)	> 100 µM (inactive)	> 100 µM (inactive)	> 100 µM (inactive)	> 100 µM (inactive)	> 100 µM (inactive)	> 100 µM (inactive)	> 100 µM (inactive)	–
N#CC[N+]1(Cc2ccccn2)CCCC1.O=S(=O)([O-])c1ccccc1	> 100 µM (inactive)	> 100 µM (inactive)	> 100 µM (inactive)	> 100 µM (inactive)	> 100 µM (inactive)	> 100	> 100 µM (inactive)	> 100 µM (inactive)	> 100 µM (inactive)	> 100 µM (inactive)	> 100 µM (inactive)	> 100 µM (inactive)	> 100 µM (inactive)	> 100 µM (inactive)	> 100 µM (inactive)	> 100 µM (inactive)	> 100 µM (inactive)	58.9 µM (inactive)	> 100 µM (inactive)	–
COC(=O)CCCCC/C(=C\C(=O)C(Cl)(Cl)Cl)OC	24.9 µM (inactive)	40.8 µM (inactive)	45.6 µM (inactive)	38.9 µM (inactive)	25.5 µM (inactive)	24.2	33.7 µM (inactive)	26.1 µM (inactive)	31.1 µM (inactive)	80 µM (inactive)	22.9 µM (inactive)	24 µM (inactive)	21.1 µM (inactive)	16.6 µM (inactive)	25.4 µM (inactive)	18.6 µM (inactive)	22.2 µM (inactive)	21.4 µM (inactive)	21.8 µM (inactive)	–
C/C(=N/OCCC(=O)O)C1CC1	> 100 µM (inactive)	–	> 100 µM (inactive)	–	–	> 100	> 100 µM (inactive)	> 100 µM (inactive)	> 100 µM (inactive)	–	–	–	> 100 µM (inactive)	> 100 µM (inactive)	> 100 µM (inactive)	> 100 µM (inactive)	> 100 µM (inactive)	> 100 µM (inactive)	–	> 100 µM (inactive)
Cc1ccc(-c2cc(=S)n(-c3ccccc3)c3[nH]c(=S)n(-c4ccccc4)c(=N)c23)cc1	> 100 µM (inactive)	–	> 100 µM (inactive)	–	–	> 100	> 100 µM (inactive)	> 100 µM (inactive)	> 100 µM (inactive)	–	–	–	> 100 µM (inactive)	77.8 µM (inactive)	> 100 µM (inactive)	> 100 µM (inactive)	> 100 µM (inactive)	> 100 µM (inactive)	> 100 µM (inactive)	> 100 µM (inactive)
Nc1nc(Cl)c(N)c(NCC2(CO)CC(O)C2)n1 (stereo not given)	> 100 µM (inactive)	67.5 µM (inactive)	> 100 µM (inactive)	> 100 µM (inactive)	> 100 µM (inactive)	> 100	> 100 µM (inactive)	> 100 µM (inactive)	> 100 µM (inactive)	> 100 µM (inactive)	> 100 µM (inactive)	> 100 µM (inactive)	> 100 µM (inactive)	> 100 µM (inactive)	> 100 µM (inactive)	> 100 µM (inactive)	> 100 µM (inactive)	> 100 µM (inactive)	> 100 µM (inactive)	–
O=c1c2ncn(C3CCCCO3)c2n(-c2ccccc2)c(=S)n1-c1ccccc1 (stereo not given)	16.4 µM (inactive)	30.7 µM (inactive)	78 µM (inactive)	23 µM (inactive)	> 71.3 µM (inactive)	55.3	10.4 µM (inactive)	9.91 µM (inactive)	> 92.5 µM (inactive)	26.2 µM (inactive)	> 67.6 µM (inactive)	> 66.1 µM (inactive)	> 41.5 µM (inactive)	39.6 µM (inactive)	19 µM (inactive)	10.8 µM (inactive)	39.2 µM (inactive)	7.69 µM (inactive)	61.9 µM (inactive)	–
COc1cc(/C=C2\C(=O)N(C(=O)c3ccc(NC(C)=O)cc3)N=C2C)ccc1O	> 100 µM (inactive)	–	> 100 µM (inactive)	–	–	–	> 100 µM (inactive)	–	> 100 µM (inactive)	–	–	–	> 100 µM (inactive)	> 100 µM (inactive)	> 100 µM (inactive)	> 100 µM (inactive)	–	> 100 µM (inactive)	> 100 µM (inactive)	> 100 µM (inactive)
CCCCCCCCCCCCNC(C)=O	16.8 µM (inactive)	20 µM (inactive)	27 µM (inactive)	13.7 µM (inactive)	30.9 µM (inactive)	16.9	14.3 µM (inactive)	2.26 µM (inactive)	17 µM (inactive)	13.8 µM (inactive)	18.2 µM (inactive)	16.7 µM (inactive)	17.7 µM (inactive)	14 µM (inactive)	18.9 µM (inactive)	16.3 µM (inactive)	14.8 µM (inactive)	23.6 µM (inactive)	23.2 µM (inactive)	–
CCc1ccccc1NC(=O)C1=C(C)NC(C)=C(C(=O)Nc2ccccc2CC)C1c1ccc(NC(C)=O)cc1	37.8 µM (inactive)	–	51.1 µM (inactive)	–	–	–	36.7 µM (inactive)	25.8 µM (inactive)	39 µM (inactive)	–	–	–	49.1 µM (inactive)	20.8 µM (inactive)	33.9 µM (inactive)	25.9 µM (inactive)	22.4 µM (inactive)	21.4 µM (inactive)	36.3 µM (inactive)	26.5 µM (inactive)
OCC1C(/C=C/c2ccoc2)ON2CCCC12 (stereo not given)	> 100 µM (inactive)	–	> 100 µM (inactive)	–	–	–	> 100 µM (inactive)	–	> 100 µM (inactive)	–	–	–	20.8 µM (inactive)	> 100 µM (inactive)	> 100 µM (inactive)	> 100 µM (inactive)	> 100 µM (inactive)	> 100 µM (inactive)	> 100 µM (inactive)	> 100 µM (inactive)
[O-]c1c[n+](CCCC[n+]2cc([O-])on2)no1	> 100 µM (inactive)	> 100 µM (inactive)	> 100 µM (inactive)	> 100 µM (inactive)	> 100 µM (inactive)	> 100	> 100 µM (inactive)	> 100 µM (inactive)	> 100 µM (inactive)	> 100 µM (inactive)	> 100 µM (inactive)	> 100 µM (inactive)	> 100 µM (inactive)	> 100 µM (inactive)	> 100 µM (inactive)	> 100 µM (inactive)	> 100 µM (inactive)	> 100 µM (inactive)	> 100 µM (inactive)	–
COC(=O)/C=C\C(C#N)(C#N)/N=C/c1ccc(C)s1	1.69 µM (inactive)	20.3 µM (inactive)	18.4 µM (inactive)	2.83 µM (inactive)	4.48 µM (inactive)	1.67	14.9 µM (inactive)	1.64 µM (inactive)	1.85 µM (inactive)	5.61 µM (inactive)	2.47 µM (inactive)	2.49 µM (inactive)	1.6 µM (inactive)	0.713 µM (active)	3.69 µM (inactive)	4.63 µM (inactive)	5.48 µM (inactive)	3.12 µM (inactive)	2.73 µM (inactive)	–
Cc1cc2c(c(O)c1-c1c(C)cc(O)c3c1C(=O)C=CC3=O)C(=O)C=CC2=O	1.16 µM (inactive)	6.76 µM (inactive)	17.7 µM (inactive)	2.61 µM (inactive)	2.19 µM (inactive)	1.52	20.3 µM (inactive)	0.413 µM (active)	2.18 µM (inactive)	2 µM (inactive)	1.95 µM (inactive)	1.46 µM (inactive)	0.342 µM (active)	0.136 µM (active)	1.95 µM (inactive)	2.88 µM (inactive)	10 µM (inactive)	5.5 µM (inactive)	1.62 µM (inactive)	–
c1ccc(-c2nnc(-c3nn(-c4ccccc4)c4nc5ccccc5nc34)o2)cc1	46.9 µM (inactive)	–	> 100 µM (inactive)	–	–	43.5	> 100 µM (inactive)	–	79.1 µM (inactive)	–	–	–	45.5 µM (inactive)	44.9 µM (inactive)	51.9 µM (inactive)	68.4 µM (inactive)	> 100 µM (inactive)	> 100 µM (inactive)	64.3 µM (inactive)	25.1 µM (inactive)
CCC1CN2CCc3c([nH]c4ccccc34)[C@@](C(=O)OC)(c3cc4c(cc3OC)N(C)C3C(O)(C(=O)OC)C(C(=O)OC)C5(CC)C=CCN6CCC43C65)C[C@@H](C2)[C@@H]1C(C)(C)C (stereo not given in full)	0.439 µM (active)	0.306 µM (active)	0.649 µM (active)	1.61 µM (inactive)	0.342 µM (active)	0.396	0.257 µM (active)	1.03 µM (active)	0.401 µM (active)	0.407 µM (active)	0.196 µM (active)	0.187 µM (active)	0.486 µM (active)	0.292 µM (active)	0.5 µM (active)	0.381 µM (active)	0.41 µM (active)	0.337 µM (active)	0.514 µM (active)	–
Oc1ccc(-c2nc3ccccc3s2)cc1	27.1 µM (inactive)	47.4 µM (inactive)	41.3 µM (inactive)	50.2 µM (inactive)	33.1 µM (inactive)	36	37 µM (inactive)	35.9 µM (inactive)	44.2 µM (inactive)	29.2 µM (inactive)	37.2 µM (inactive)	32.9 µM (inactive)	47.3 µM (inactive)	15.5 µM (inactive)	30.6 µM (inactive)	47.8 µM (inactive)	20.4 µM (inactive)	37.4 µM (inactive)	31 µM (inactive)	–
